Here are results for three compounds from PMC9460261, “Need for a Standardized Translational Drug Development Platform: Lessons Learned from the Repurposing of Drugs for COVID-19” (Microorganisms, 2022).

Data set [1] in a line: Binding to antiviral assay medium by Rapid Equilibrium Dialysis. The following applies: bovine.
Data set [2] deals with SARS-CoV-2. The following applies: read-out: SARS-CoV-2 EC50, cited from earlier work.
The test system of data set [3] is SARS-CoV-2 in Calu-3 cells.
Data set [4] can be described thus: in vitro. The following applies: African green monkey, Selectivity Index (Vero cells), T: toxicity observed.
The nature of data set [5]: Plasma protein binding, hamster. The conditions noted are these: hamster, plasma.
For data set [6] the following is noted: cited from earlier work.
In data set [7] the test system is SARS-CoV-2. It counts as in vivo, Syrian hamster. The following applies: for Activity in SARS-CoV-2 Hamster Model: doses, frequency, duration as in Table 1.
Data set [8] concerns SARS-CoV-2 in Vero cells.
Data set [9] in a line: Population PK model from satellite PK studies in hamster. The following applies: hamster of the study's median weight (80-131 g).
In data set [10] the test system is SARS-CoV-2 in Calu-3 cells. Description: microbe, parasite or virus in culture. The conditions noted are these: Severe acute respiratory syndrome coronavirus 2, Calu-3, read-out: Calu-3 cells Average IC50.
Data set [11] relates to SARS-CoV-2 in Vero cells. Description: microbe, parasite or virus in culture. The following applies: Severe acute respiratory syndrome coronavirus 2, Vero.
For data set [12] the following is noted: female, LGV Golden Syrian, hamster, in vivo.
Data set [13] is described as follows: in vitro. The conditions noted are these: hamster, plasma.
For data set [14], the system named is SARS-CoV-2 in A549-Dual hACE2-TMPRSS2 cells. Also noted: method as in Abdelnabi et al., 2022 [60]. The conditions noted are these: ref Abdelnabi et al., 2022 [60]; cited from earlier work.
Setting [15] is: read-out: VERO cells Average IC50, With Pgp pump inhibitor, 2 μM CP-100356, * one replicate only.
[16] abbreviates: read-out: VERO cells Average IC50, Without Pgp pump inhibitor, * one replicate only.

Each structure is given as a SMILES string. Read-outs that look alike come from different tables or passages of the source. A value given as a limit tells only on which side of the number the result lay.

On to `COC(=O)N[C@H](C(=O)N1CCC[C@H]1c1nc(-c2ccc(-c3ccc(-c4c[nH]c([C@@H]5CCCN5C(=O)[C@@H](NC(=O)OC)C(C)C)n4)cc3)cc2)c[nH]1)C(C)C` [Daclatasvir, daclatasvir], for which the fraction unbound is 0.209 in [1] and 0.055 in [5]. The EC50 with SARS-CoV-2 [2] (host cell Calu-3) was 1.1 µM; in the data set with SARS-CoV-2 [2] (host cell HuH-7), 0.6 µM; with SARS-CoV-2 [2] (host cell Vero, ref 26), 0.8 µM. In addition, in data set [3], the “Activity In Vitro; Potency EC50 or IC50 < 10 µM; Calu-3 Cells” value (“Activity In Vitro … Calu-3 Cells” for short) was “No (Potency EC50 or IC50 < 10 µM)”. For the same compound, the selectivity ratio in “in vitro [4]” (With Pgp pump inhibitor) is above 6.6; in the data set “in vitro [4]” (Without Pgp pump inhibitor), above 2.5. Besides, the “Fraction unbound in plasma, human” value in data set [6] (literature, ref 61 (N-desethylamodiaquine), 62 (atazanavir), 63 (daclatasvir), 64 (favipiravir), 65 (ivermectin), 66 (tizoxanide), 67 (sofosbuvir)) is listed as 1%. The entries for the “Activity in SARS-CoV-2 Hamster Model” value with SARS-CoV-2 [7] and with SARS-CoV-2 [7] (listed as daclatasvir) were “No” and “no activity”, respectively. In addition, the “Activity In Vitro; Potency EC50 or IC50 < 10 µM; Vero Cells” value (shortened to “Activity In Vitro … Vero Cells”) in the data set with SARS-CoV-2 in Vero cells [8] (in the presence of a P-glycoprotein inhibitor (^Pgp)) is recorded as “Yes (Potency EC50 or IC50 < 10 µM)”. The “CL/F, elimination clearance, population estimate (%RSE)” value in data set [9] is listed as 239 (19.6) mL/h. Further, the “KA, absorption rate constant, population estimate (%RSE)” value in data set [9] was 0.415 (5.84) h-1. Also, in [9], the “Q/F (Q1/F), inter-compartment clearance, population estimate (%RSE)” value is reported as 33.4 (25.5) mL/h. The “VC/F, central volume of distribution, population estimate (%RSE)” value in [9] is given as 86.3 (27.0) mL. In addition, in data set [9], the “VP/F, peripheral volume of distribution, population estimate (%RSE)” value is reported as 438 (25.6) mL. Moreover, the IC50 in [10] was found to be 24.4 µM; with SARS-CoV-2 in Vero cells [11] (setting [15]) it was 7.6 µM; in the data set with SARS-CoV-2 in Vero cells [11] (setting [16]) it was 19.8 µM.

With `NC(=O)c1nc(F)c[nH]c1=O` [Favipiravir, favipiravir], the fraction unbound came out at 0.993 in data set [1] and 0.821 in “in vitro [13]”. The EC50 in the data set on SARS-CoV-2 [2] (host cell Vero E6, ref 17) was 446 µM; in the data set on SARS-CoV-2 [2] (host cell Vero E6, ref 31), above 100 µM; in the data set with SARS-CoV-2 [2] (host cell Vero E6, ref 32) it was above 50 µM; with SARS-CoV-2 [2] (host cell Vero E6, ref 34), 117 µM; with SARS-CoV-2 [2] (host cell Vero E6, ref 35), 62 µM; in the data set on SARS-CoV-2 [2] (host cell Vero, ref 25) it was above 500 µM. Further, the EC50 is above 20 µM in the data set with SARS-CoV-2 [2] (host cell Vero, ref 36) and above 64 µM with SARS-CoV-2 [2] (host cell VeroE6/TMPRSS2). Further, the “Activity In Vitro … Calu-3 Cells” value in data set [3] is recorded as “No (Potency EC50 or IC50 < 10 µM)”. Moreover, in data set [12], the “CL/F, elimination clearance, population estimate (%RSE)” value is recorded as 58.2 (6.06) mL/h. Moreover, the “KA, absorption rate constant, population estimate (%RSE)” value in data set [12] was 0.774 (7.71) h-1. The “Q/F (Q1/F), inter-compartment clearance, population estimate (%RSE)” value in [12] is recorded as 1.80 (12.7) mL/h. Further, the “VC/F, central volume of distribution, population estimate (%RSE)” value in data set [12] is recorded as 11.7 (14.7) mL. Also, the “VP/F, peripheral volume of distribution, population estimate (%RSE)” value in [12] was 11.6 (8.7) mL. Also, in [6] (human, plasma), the “Fraction unbound in plasma, human” value was 46%. Moreover, the “Activity in SARS-CoV-2 Hamster Model” value in the data set on SARS-CoV-2 [7] is “Yes”; in the data set with SARS-CoV-2 [7] (listed as favipiravir), “demonstrated in vivo efficacy”. In the data set with SARS-CoV-2 in Vero cells [8], the “Activity In Vitro … Vero Cells” value was “No (Potency EC50 or IC50 < 10 µM)”. Further, the IC50 (in data set [10]; with SARS-CoV-2 in Vero cells [11] (setting [15]); in the data set on SARS-CoV-2 in Vero cells [11] (setting [16])) was above 50 µM in each case.

For `CC(C)(C)[C@H](NC(=O)C(F)(F)F)C(=O)N1C[C@H]2[C@@H]([C@H]1C(=O)N[C@H](C#N)C[C@@H]1CCNC1=O)C2(C)C` [Nirmatrelvir, nirmatrelvir], the fraction unbound in [1] was found to be 0.898; in data set [5], 0.621. Besides, the “Activity In Vitro … Calu-3 Cells” value in [3] is reported as “Yes (Potency EC50 or IC50 < 10 µM)”. Moreover, the EC50 in [14] is 0.11 µM. In addition, the results for the “Activity in SARS-CoV-2 Hamster Model” value with SARS-CoV-2 [7] and in the data set on SARS-CoV-2 [7] (listed as nirmatrelvir) were “Yes” and “demonstrated in vivo efficacy”, respectively. The “Lung TCID50 of SARS-CoV-2 in the hamster model” value in the data set on SARS-CoV-2 [7] (hamster, in vivo) is on record as “significant reduction”. Besides, in the data set with SARS-CoV-2 in Vero cells [8], the “Activity In Vitro … Vero Cells” value is listed as “Yes (Potency EC50 or IC50 < 10 µM)”. The half-maximal inhibitory concentration (IC50) in [10] was 0.3 µM; in the data set on SARS-CoV-2 in Vero cells [11] (setting [15]) it was below 0.05 µM; in the data set with SARS-CoV-2 in Vero cells [11] (setting [16]) it was 3.4 µM.
